Here are results for 2 compounds from patent US8835647B2, “2-((R)-2-methylpyrrolidin-2-yl)-1H-benzimidazole-4-carboxamide crystalline form 1” (AbbVie Inc., priority 2007, dated 2014).

For series [1] the following is noted: at 25° C.
The next series relates to tumor. Conditions: tumor bearing animals; cited from earlier work.

Take `C[C@]1(c2nc3c(C(N)=O)cccc3[nH]2)CCCN1` [ABT-888 Crystalline Form 1, 2-((R)-2-Methylpyrrolidin-2-yl)-1H-benzimidazole-4-carboxamide Crystalline Form 1]: the “thermodynamic stability of crystalline form” value in series [1] is recorded as “most thermodynamically stable crystalline form of ABT-888”.
Regarding `C[C@]1(c2nc3c(C(N)=O)cccc3[nH]2)CCCN1` [ABT-888, 2-((R)-2-methylpyrrolidin-2-yl)-1H-benzimidazole-4-carboxamide], in the series on tumor, the tumor growth result is “limit tumor growth”.
